Laboratory results published in ChEMBL document CHEMBL4680115, “Discovery of the programmed cell death-1/programmed cell death-ligand 1 interaction inhibitors bearing an indoline scaffold” (Eur J Med Chem, 2020).

Experiments:
[1] = molecular target: T1, Programmed cell death protein 1/Programmed cell death 1 ligand 1 (Homo sapiens, UniProt Q15116+Q9NZQ7); assay: Inhibition of PD-1/PDL1 interaction (unknown origin) by HTRF assay; format: protein-complex assay
Jurkat = assay: Cytotoxicity against human Jurkat T cells assessed as reduction in cell viability measured after 72 hrs by CCK-8 assay; format: cell-based; conditions: for Activity: human, jurkat, time 72 hrs; for EC50: Homo sapiens, Jurkat
[2] = molecular target: T1, Programmed cell death protein 1/Programmed cell death 1 ligand 1; assay: Inhibition of PD1/PDL1 protein-protein interaction in human PBMC-derived CD3-positive T cells co-cultured with human Hep3B cells expressing human PDL1/OS-8 assessed as increase in IFNgamma secretion measured after 72 hrs; conditions: dose 0.31-20 µM
[3] = molecular target: T1, Programmed cell death protein 1/Programmed cell death 1 ligand 1; assay: Inhibition of PD1/PDL1 protein-protein interaction in human PBMC-derived CD3-positive T cells co-cultured with human Hep3B cells expressing human PDL1/OS-8 assessed as increase in IFNgamma secretion at 20 uM measured after 72 hrs; design: scale not given: the % may be the effect or the level left
[4] = molecular target: T1, Programmed cell death protein 1/Programmed cell death 1 ligand 1; assay: Inhibition of PD1/PDL1 protein-protein interaction in human PBMC-derived CD3-positive T cells co-cultured with human Hep3B cells expressing human PDL1/OS-8 assessed as increase in IFNgamma secretion at 5 uM measured after 72 hrs relative to BMS-1

T1 sequence (Q15116 whole entry): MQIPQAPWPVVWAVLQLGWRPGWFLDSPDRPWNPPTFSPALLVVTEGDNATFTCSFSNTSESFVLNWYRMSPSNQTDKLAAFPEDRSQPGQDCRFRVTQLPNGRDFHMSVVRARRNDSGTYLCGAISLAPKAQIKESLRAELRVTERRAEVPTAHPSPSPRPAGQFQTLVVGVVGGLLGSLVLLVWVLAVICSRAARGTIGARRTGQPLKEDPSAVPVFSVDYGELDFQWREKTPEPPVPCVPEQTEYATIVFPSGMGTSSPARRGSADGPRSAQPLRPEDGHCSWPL
T1 sequence (Q9NZQ7 whole entry): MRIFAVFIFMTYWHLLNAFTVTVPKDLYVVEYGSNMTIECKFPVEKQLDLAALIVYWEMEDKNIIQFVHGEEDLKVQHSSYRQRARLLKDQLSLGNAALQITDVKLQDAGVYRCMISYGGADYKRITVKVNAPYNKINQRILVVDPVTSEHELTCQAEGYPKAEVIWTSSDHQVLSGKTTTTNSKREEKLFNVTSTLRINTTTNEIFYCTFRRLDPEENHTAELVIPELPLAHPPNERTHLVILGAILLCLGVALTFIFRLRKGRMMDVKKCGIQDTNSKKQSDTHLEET

Row | Compound | IC50 [1] | further results
1 | O=C(c1ccc(CNCCO)cc1Cl)N1CCc2c(-c3ccccc3)cccc21 | > 10000 nM | –
2 | CC(=O)NCCNCc1ccc(C(=O)N2CCc3c(-c4ccccc4)cccc32)cc1Cl | 589 nM | –
3 | CC(=O)NCCNCc1ccc(C(=O)N2CCc3c(-c4ccccc4)cccc32)cc1C | 457 nM | –
4 | CC(=O)NCCNCc1cccc(C(=O)N2CCc3c(-c4ccccc4)cccc32)c1 | 745 nM | –
5 | O=C(c1cccc(CNCCO)c1)N1CCc2c(-c3ccccc3)cccc21 | 344 nM | –
6 | N#Cc1cccc(COc2cc(C(=O)N3CCc4c(-c5ccccc5)cccc43)ccc2CN2CCCC[C@H]2C(=O)O)c1 | 1330 nM | –
7 | CC(=O)NCCNCc1ccc(C(=O)N2CCc3c(-c4ccccc4)cccc32)c(Cl)c1 | > 10000 nM | –
8 | COCCNCc1ccc(C(=O)N2CCc3c(-c4ccccc4)cccc32)cc1OC | 350 nM | –
9 | N#Cc1cccc(COc2cc(C(=O)N3CCc4c(-c5ccccc5)cccc43)ccc2CNCCO)c1 | 572 nM | –
10 | CC(=O)NCCNCc1ccc(C(=O)N2CCc3c(-c4ccccc4)cccc32)cc1 | 622 nM | –
11 | O=C(c1ccc(CNCCO)cc1)N1CCc2c(-c3ccccc3)cccc21 | 192 nM | Activity (Jurkat): Toxic
12 | COc1cc(C(=O)N2CCc3c(-c4ccccc4)cccc32)ccc1CNCCO | – | EC50 (Jurkat): 44700 nM; inhibition [2]: Dose-dependent effect; Activity [3]: 610%; fold change (FC) [4]: 3.21
13 | COc1cc(C(=O)N2CCc3c(-c4ccccc4)cccc32)ccc1CN1CCC[C@H]1C(=O)O | 1890 nM | –
14 | COc1cc(C(=O)N2CCc3c(-c4ccccc4)cccc32)ccc1CN1CCCC[C@@H]1C(=O)O | 1060 nM | –
15 | CC(=O)NCCNCc1ccc2c(c1)C(=O)N(c1cccc(-c3ccccc3)c1C)C2 | > 10000 nM | –
16 | COc1cc(C(=O)N2CCc3c(-c4ccc5c(c4)OCCO5)cccc32)ccc1CNCCO | 225 nM | Activity (Jurkat): Toxic

Row | Compound | IC50 [1] | further results
17 | O=C(c1ccc(CNCCO)c(O)c1)N1CCc2c(-c3ccccc3)cccc21 | 304 nM | –
18 | CC(=O)NCCNCc1ccc(C(=O)N2CCc3c(-c4ccccc4)cccc32)cc1O | 602 nM | –
19 | Cc1c(-c2ccccc2)cccc1N1Cc2ccc(CNCCO)cc2C1=O | 9380 nM | –
20 | COc1cc(C(=O)N2CCc3c(-c4ccc5c(c4)OCCO5)cccc32)ccc1CNCCNC(C)=O | 416 nM | –
21 | CC(=O)NCCNCc1ccc(C(=O)N2CCc3c(-c4ccccc4)cccc32)cc1OCc1cccc(C#N)c1 | 1060 nM | –
22 | Cc1c(-c2ccccc2)cccc1N1Cc2cc(CNCCO)ccc2C1=O | 7290 nM | –
23 | COc1cc(C(=O)N2CCc3c(-c4ccccc4)cccc32)ccc1CN[C@H](CO)C(=O)O | 278 nM | –
24 | COc1cc(C(=O)N2CCc3c(-c4ccccc4)cccc32)cc(OC)c1CNCCNC(C)=O | 7260 nM | –
25 | COc1cc(C(=O)N2CCc3c(-c4ccccc4)cccc32)ccc1CN1CCC[C@H]1CO | 620 nM | –
26 | CC(=O)NCCNCc1ccc2c(c1)CN(c1cccc(-c3ccccc3)c1C)C2=O | > 10000 nM | –
27 | N#Cc1cccc(COc2cc(C(=O)N3CCc4c(-c5ccccc5)cccc43)ccc2CN[C@H](CO)C(=O)O)c1 | 3280 nM | –
28 | O=C(c1ccc(CNCCO)c(Cl)c1)N1CCc2c(-c3ccccc3)cccc21 | 353 nM | –
29 | Cc1cc(C(=O)N2CCc3c(-c4ccccc4)cccc32)ccc1CNCCO | 212 nM | Activity (Jurkat): Toxic
30 | COc1cc(C(=O)N2CCc3c(-c4ccccc4)cccc32)ccc1CNCCNC(C)=O | 220 nM | EC50 (Jurkat): 39800 nM; inhibition [2]: Dose-dependent effect
31 | COc1cc(C(=O)N2CCc3c(-c4ccccc4)cccc32)cc(OC)c1CNCCO | 4770 nM | –
